Measured values published in patent publication US11872236B2, “Pharmacological agents for treating ocular diseases” (CALASIA PHARMACEUTICALS, INC., priority 2018, dated 2024).

biological target: T1, alpha-A crystalline (Homo sapiens, UniProt P02489); experiment: Ca+2 and UVC induced aggregation of alpha-A crystalline (absorbance screen); type: biochemical; details: 200 μM; Ca+2 and UVC induced aggregation of alpha-A crystalline;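 note: recombinant human alpha-A crystallin (500 µg/ml) preincubated 30 min with compound, then UV-induced aggregation tracked by absorbance at time points from 0 to 120 min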
T1 sequence (P02489 1-173): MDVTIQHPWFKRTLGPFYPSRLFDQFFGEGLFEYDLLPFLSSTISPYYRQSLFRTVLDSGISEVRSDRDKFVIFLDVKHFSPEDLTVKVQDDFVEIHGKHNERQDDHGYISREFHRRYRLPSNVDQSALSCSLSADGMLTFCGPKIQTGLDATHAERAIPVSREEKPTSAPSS

Row | SMILES | Percent protection (at 200 μM) [%]
1 | Oc1cc(O)c2c(c1)O[C@H](c1ccc(O)c(O)c1)[C@H](O)C2 [CAP1049] | −5
2 | COc1ccc(CCNC(=O)CCC2CCCCC2)cc1OC [CAP1224] | 46
3 | COc1ccc(CCNC(=O)CCCC(=O)NCCc2ccc(OC)c(OC)c2)cc1OC [CAP1228, N,N′-bis[2-(3,4-dimethoxyphenyl)ethyl]pentanediamide] | 60

same assay, conditions: 200 μM; Ca+2 and UVC induced aggregation of alpha-A crystalline; read-out: Percent protection (at 200 μM)

Row | SMILES | inhibition at 200 µM [%]
4 | CNC[C@H](O)c1ccc(O)c(O)c1 [CAP1043] | -5
5 | Oc1ccc(C2CNCCc3c2cc(O)c(O)c3Cl)cc1 (centres unmarked) [CAP1044] | -16
6 | Oc1cc(O)c2c(c1)O[C@H](c1ccc(O)c(O)c1)[C@@H](O)C2 [CAP1047] | -17
7 | O=C(O)[C@H]1OC(Oc2cc3oc(-c4ccccc4)cc(=O)c3c(O)c2O)[C@H](O)[C@@H](O)[C@@H]1O (some centres unmarked) [CAP1052] | 3
8 | O=c1c(O)c(-c2ccc(O)c(O)c2)oc2cc(O)ccc12 [CAP1053] | 52
9 | C[C@@](Cc1ccc(O)c(O)c1)(NN)C(=O)O [CAP1055] | 1
10 | C[C@](N)(Cc1ccc(O)c(O)c1)C(=O)O [CAP1056] | -5
11 | O=C(NCCc1ccc(O)c(O)c1)C12CC3CC(CC(C3)C1)C2 [CAP1057] | -8
12 | COc1cc(CC2NCCc3cc(O)c(O)cc32)cc(OC)c1OC (centres unmarked) [CAP1058] | -27
13 | O=C1c2ccccc2C(=O)c2c1cc(S(=O)(=O)O)c(O)c2O [CAP1072] | 53
14 | COc1cc(/C=N/c2cccc(C)n2)cc([N+](=O)[O-])c1O [CAP1110] | 19
15 | COc1cc(CNc2cccc(C)n2)cc([N+](=O)[O-])c1O [CAP1112] | 12
16 | CCN(CC)C(=O)/C(C#N)=C/c1cc(O)c(O)c([N+](=O)[O-])c1 [CAP1159] | 27
17 | O=C(OC[C@H]1OC(OC(=O)c2cc(O)c(O)c(OC(=O)c3cc(O)c(O)c(O)c3)c2)[C@H](OC(=O)c2cc(O)c(O)c(OC(=O)c3cc(O)c(O)c(O)c3)c2)[C@@H](OC(=O)c2cc(O)c(O)c(OC(=O)c3cc(O)c(O)c(O)c3)c2)[C@@H]1OC(=O)c1cc(O)c(O)c(OC(=O)c2cc(O)c(O)c(O)c2)c1)c1cc(O)c(O)c(OC(=O)c2cc(O)c(O)c(O)c2)c1 (some centres unmarked) [CAP1176] | 76
18 | Oc1ccc(CCNCCCCCCNCCc2ccccc2)cc1O [CAP1215] | -47
19 | O=C1c2ccc(S(=O)(=O)O)c(O)c2C(=O)c2ccc(S(=O)(=O)O)c(O)c21 [CAP1219] | -5
20 | O=C1c2ccccc2C(=O)c2c1ccc(S(=O)(=O)O)c2O [CAP1220] | 20
21 | COc1ccc(CCNC(=O)C2CCCCC2)cc1OC [CAP1222] | 38
22 | CCC(CC)C(=O)NCCc1ccc(OC)c(OC)c1 [CAP1223] | 29
23 | COc1ccc(CCNC(=O)CCCCC(=O)NCCc2ccc(OC)c(OC)c2)cc1OC [CAP1225] | 50
24 | COc1ccc(CCNC(=O)C2CCC2)cc1OC [CAP1226, N-[2-(3,4-dimethoxyphenyl)ethyl]cyclobutanecarboxamide] | 72
25 | COc1ccc(CCNC(=O)C2CCN(C(=O)Cc3ccccc3)CC2)cc1OC [CAP1227, N-[2-(3,4-dimethoxyphenyl)ethyl]-1(phenylacetyl)-4-piperidinecarboxamide] | 46
26 | COc1ccc(CCNC(=O)CCCC(=O)NCOc2ccc(OC)cc2)cc1 [CAP1229] | 22
27 | COc1ccc(CCNC(=O)C2CC2)cc1OC [CAP1230, N-[2-(3,4-dimethoxyphenyl)ethyl]cyclopropanecarboxamide] | 18
28 | COc1ccc(CCNC(=O)C2CCCC2)cc1OC [CAP1231, N-[2-(3,4-dimethoxyphenyl)ethyl]cyclopentanecarboxamide] | 51

same assay, conditions: preventing Ca+2 and UVC induced aggregation of alpha-A crystalline

Row | SMILES | EC50 [µM]
29 | N[C@@H](Cc1ccc(O)c(O)c1)C(=O)O [CAP1042] | 860
30 | O=c1c(O)c(-c2ccc(O)c(O)c2)oc2cc(O)ccc12 [CAP1053] | 461
31 | CCN(CC)C(=O)/C(C#N)=C/c1cc(O)c(O)c([N+](=O)[O-])c1 [CAP1159] | 313
32 | COc1ccc(CCNC(=O)CCC2CCCCC2)cc1OC [CAP1224] | 880
33 | COc1ccc(CCNC(=O)C2CCC2)cc1OC [CAP1226, N-[2-(3,4-dimethoxyphenyl)ethyl]cyclobutanecarboxamide] | 46.2
34 | COc1ccc(CCNC(=O)C2CCN(C(=O)Cc3ccccc3)CC2)cc1OC [CAP1227, N-[2-(3,4-dimethoxyphenyl)ethyl]-1(phenylacetyl)-4-piperidinecarboxamide] | 288

same assay, conditions: read-out: Percent protection (at 200 μM)

Row | SMILES | inhibition at 200 µM [%]
35 | CC(CCc1ccc(O)cc1)NCCc1ccc(O)c(O)c1 (centres unmarked) [CAP1051] | -28
